Laboratory results as given in publication PMC4326127, “Collagen Inhibitory Peptide R1R2 Mediates Vascular Remodeling by Decreasing Inflammation and Smooth Muscle Cell Activation” (PLoS ONE, 2015).
“Also recorded” adds a separate entry of the source.

Tests used:
[1] = system: binding of FN to collagen type I; experiment: Solid-phase binding assay (competitive ELISA) of FN to collagen; design: species or system human FN; rat collagen type I; conditions: 4 nM FN incubated with peptide at 4°C overnight, then on wells coated with 10 μg/ml collagen I overnight at 37°C; anti-FN/HRP, ABTS, A405
Procedure: Human FN and rat collagen type I for competitive ELISA were purchased from Sigma-Aldrich (St. Louis, MO).
The FN-peptide solutions were added to collagen or BSA-coated wells, and the plates were incubated overnight at 37°C. The wells were washed and a rabbit anti-FN antibody was added for 90 minutes at room temperature. Wells were washed and then incubated with a horseradish peroxidase-conjugated secondary antibody. After washing was completed, peroxidase activity was quantified using 2,2'-azino-bis-(3-ethylbenthiazoline-6-sulfonic acid). Measurements were done at 405 nm (A405) using a SpectraMax M5 microplate reader (Molecular Device, Sunnyvale, CA).
Bound FN was detected with an anti-FN antibody followed by HRP-conjugated secondary antibody, and ABTS as described in Methods. The absorbance at 405nm was quantitated.

[2] = system: left common carotid artery (flow-induced vascular remodeling); experiment: Morphometric analysis of carotid artery after complete common carotid ligation; format: in vivo, FVB/NJ (FVB) mice; conditions: for EEL Area / Intima+Media / Intima/Media Ratio / Lumen: 20 μM peptide in 50 μl F-127 pluronic gel, mean ± SEM
Source text: (§1) Animals were anesthetized with isoflurane inhalation. The left common carotid artery was exposed, dissected free from the surrounding connective tissue and completely ligated with 6-0 silk suture just proximal to the carotid bifurcation. […] 4–10 mice were included in each experimental group.
5 groups of animals were processed for morphometric analysis. Mice were fixed with 10% formalin 7 or 14 days after the surgery. The common carotid arteries were harvested and embedded in paraffin.
(§2) For in vivo experiments, the data are shown as the mean ± SEM. For in vitro experiments, the data shown are the means ± SD of a representative experiment, at least 3 independent experiments were performed. One-way ANOVA with post-hoc testing were used for data analysis with GraphPad Prism software (GraphPad, San Diego, CA). If normality test failed, nonparametric Kruskal-Wallis test followed by Dunn's post-hoc test were used. P > 0.05 was not considered significant.

collagen type I = experiment: IHC for collagen type I in ligated carotid artery; format: in vivo, FVB/NJ (FVB) mice; conditions: 7 days after surgery; 20 μM peptide in pluronic gel; mean ± SEM; R1R2 n = 6, scrambled n = 6
Procedure: as §1
(§3) Paraffin sections selected from the first mm of the carotid artery in each group were used for immunohistochemistry (IHC). […] Sections were then incubated with appropriate biotinylated secondary antibodies followed by avidin-biotin immunoperoxidase system (Vector Laboratories, Burlingame, CA). Liquid DAB Substrate Chromogen system (Dako, Carpinteria, CA) was used for detection.
(§4) Quantitative IHC analysis was performed on digital images captured with a 20x objective by using Image-Pro Plus software. Data from 3–6 mice for each group were averaged, and the average values ± SEM were shown. For FN, collagen type I, SM-MHC and SM α-actin, color digital images were transformed into gray scale, and the sum of the optical densities from the intima+media area in each section was determined. […] The percent of positive cells is reported as the proliferation index. […] The intima+media region was traced manually. The percent of positively stained area in intima+media to the total traced area was assessed.
(§5) For in vivo experiments, the data are shown as the mean ± SEM. […]

Ki-67 (+) cells = experiment: Ki-67 IHC, cell proliferation in carotid intima and media; format: in vivo, FVB/NJ (FVB) mice; conditions: 7 days post-surgery, mean ± SEM, n = 5 each
Procedure: as §1, §3, §4, §5

A7r5 SMCs = experiment: A7r5 SMC growth study; format: cell-based
Procedure: (§6) Human umbilical vein endothelial cells (HUVECs) and A7r5 SMCs were provided by Resource Center (SB3, NSC 100-2325-B-080-001), National Research Program for Biopharmaceuticals (Hsinchu, Taiwan). HUVECs were maintained in M199 (Life Technologies, Carlsbad, CA) with 25U/ml heparin (Sigma-Aldrich, St. Louis, MO), 10% fetal bovine serum (FBS) and endothelial cell growth supplement (ECGS; Millipore, Billerica, MA). A7r5 SMCs were grown in Dulbecco’s Modified Eagle’s Medium (DMEM) containing high glucose, supplemented with 10% fetal bovine serum. Human U937 cells were grown in RPMI1640 with 10% FBS.
A7r5 cells and HUVECs were growth-arrested and then stimulated with 10% FBS or 10 ng/ml TNF-αovernight after serum starvation as indicated in the figure legend. Briefly, trypan blue-excluding cells were counted with a hemocytometer, and data were analyzed using GraphPad Prism Software (San Diego, CA) as in previous studies. A second observer performed a similar analysis to verify the initial findings.
as §2
Fig 6 R1R2 reduces SMC proliferation and migration. (A) A7r5 SMC growth study over 96 hours. After serum starvation and treatment with R1R2 or scrambled peptides for 36 hours, cells were stimulated with 10% FBS over 96 hours. Cells were counted at the indicated time in the figure (n = 5). (B) A7r5 SMCs were pretreated with R1R2 or scramble peptide for 36 hours. […] (C) Quantitation of SMC migration in the scratch wound healing assay was performed by subtracting the cell-free area 30 hours after PDGF-BB stimulation from the cell-free area in the beginning (n = 5). * indicates p<0.05 and ** p< 0.01.

ICAM-1 = experiment: Western blot of ICAM-1 in TNF-α-treated HUVECs; format: cell-based, human; conditions: in words
Procedure: as §6
(§7) Tissues or cells were homogenized with RIPA buffer supplemented with protease inhibitor cocktail (Sigma-Aldrich, St. Louis, MO). Cell lysates were spun at 12,000 rpm for 15 min at 4°C, then electrophoresed on 10% SDS-PAGE gel and transferred to nitrocellulose. […]
(§8) Fig 8 R1R2 decreases TNF-α-induced monocyte U937 cell adhesion to HUVECs and transendothelial migration and reduces ICAM-1 and VCAM-1 levels. […] Calcein-AM labeled U937 monocyte adhesion to TNF-α HUVECs was quantitated by fluorescence intensity. Microscopic images showing U937 monocytes adhering to HUVECs as assessed by in vitro adhesion assay. […]

VCAM-1 = experiment: Western blot of VCAM-1 in TNF-α-treated HUVECs; format: cell-based, human; conditions: in words
Procedure: as §6, §7, §8

FN fibril = conditions: in vitro; ref [29]; cited from earlier work
Source text: Therefore, we used the experimental group treated with scrambled peptide as the control group. In Fig. 3A and 3B, IHC analysi ... || In vitro studies have shown that FN is required as a scaffold for collagen deposition. Inhibiting FN polymerization with antibodies or inhibitors prevents FN and collagen fibril deposition into the ECM in vitro [27, 31].

[3] = 7 day after ligation, periadventitial, scrambled n = 4, R1R2 n = 10
[4] = 14 day after ligation, periadventitial, scrambled n = 4, R1R2 n = 9

GLNGENQKEPEQGERGEAGPPLSGLSGNNQGRPSLPGLNGENQKEPEQGERGEAGPP [R1R2]
effect on FN-collagen type I binding [1]: blocked the binding of FN to collagen type I in a dose-dependent manner | effect on neointimal formation ([2]; 7 and 14 days post-ligation, 20 μM peptide in pluronic gel, periadventitial, in words): dramatic attenuation in injury-induced neointimal formation | EEL Area [2, 3]: 64905 ± 3680 (n = 10) μm^2 | Intima+Media [2, 3]: 29208 ± 884 (n = 10) μm^2 | Intima/Media Ratio [2, 3]: 0.0424 ± 0.0133 (n = 10) | Lumen [2, 3]: 32038 ± 2870 (n = 10) μm^2 | effect on intima-media area, EEL area and intimal/medial ratio ([2]; 7 days and 14 days after ligation, compared to the control mice, in words): significantly reduced intima-media areas (Intima + Media), EEL area and intimal/medial ratios | EEL Area [2, 4]: 51482 ± 4981 (n = 9) μm^2 | Intima+Media [2, 4]: 25706 ± 1220 (n = 9) μm^2 | Intima/Media Ratio [2, 4]: 0.0709 ± 0.0231 (n = 9) | Lumen [2, 4]: 25776 ± 4286 (n = 9) μm^2 | effect on lumenal area ([2]; day 7 and 14 after injury, compared to the controls, in words): no significant decrease in the lumenal area | collagen type I IHC intensity in intima-media area (collagen type I): 0.117 ± 0.007 | proliferation index (Ki-67 (+) cells/total cells) (Ki-67 (+) cells): 11.20 ± 0.62% | effect on A7r5 SMC growth (A7r5 SMCs; 48–96 hours, in comparison with scrambled peptide, in words): significantly inhibited A7r5 SMC growth after 48–96 hours | A7r5 SMC growth, cell number (A7r5 SMCs; 48hr, 10% FBS after serum starvation and 36 hours peptide treatment, hemocytometer, trypan blue, mean ± SD, n = 5): 1.5 ± 0.224 x 10^5 | ICAM-1 expression on HUVECs (ICAM-1): significantly decreased; also recorded: transient and detected earlier than the effect on VCAM-1 expression | VCAM-1 expression on HUVECs (VCAM-1): significantly decreased | effect on FN fibril deposition/formation (FN fibril): does not affect FN fibril deposition into the ECM; also recorded: does not alter FN fibril formation
